Test results published in US4990497A, “Antifungal antibiotics” (priority 1989, dated 1991).
≈ marks a conversion by molar mass, not a printed value. Entries after “also recorded” stand apart in the source; their conditions may differ. Where two headings read alike, the source gives them in different places.

How the values were obtained:
Sporothrix schenckii = test: Antifungal MIC, serial agar dilution (Sabouraud dextrose agar), Sporothrix schenckii; type: cell-based
[1] = system: Trichophyton mentagrophytes; test: Antifungal MIC, broth dilution (Sabouraud dextrose broth), Trichophyton mentagrophytes
Method: (§1) The minimum inhibitory concentrations (MICs) against various fungi were determined by serial agar and broth dilution methods using Sabouraud dextrose agar and broth. The inoculum size of the test organism was adjusted to 10^5 CFUs/ml (BU-3608) or 10^5 -10^9 CFUs/ml (BU-3608 B and C) in the agar dilution method, and 10^4 -10^5 CFUs/ml (BU-3608) or 10^4 -10^6 CFUs/ml (BU-3608 B and C) in the broth dilution method.
(§2) ^(1) Determined after incubation for 72 hours at 28° C.
(§3) ^(2) Inoculum size: 10^5 CFU/ml for agar dilution and 10^4
-10^5 CFU/ml for broth dilution.
(§4) ^(3) Values in parenthesis indicate partial inhibition.
(§5) *Determined after incubation for 48-72 hours at 28° C.
(§6) **Inoculum size : 10^4 -10^6 CFU/ml for broth dilution and
10^5 -10^9 CFU/ml for agar dilution.
(§7) Values in parenthesis indicate partial inhibition.

Piricularia oryzae = test: microbe, parasite or virus in culture; type: cell-based
Fusarium moniliforme = test: Antifungal MIC, serial agar dilution (Sabouraud dextrose agar), Fusarium moniliforme; type: cell-based; conditions: Fusarium verticillioides
Candida albicans [2] = test: Antifungal MIC, serial agar dilution (Sabouraud dextrose agar), Candida albicans; type: cell-based
Aspergillus fumigatus [3] = test: Antifungal MIC, serial agar dilution (Sabouraud dextrose agar), Aspergillus fumigatus; type: cell-based
Aspergillus fumigatus [4] = test: Antifungal MIC, broth dilution (Sabouraud dextrose broth), Aspergillus fumigatus
Method: as §1, §2, §3
-10^5 CFU/ml for broth dilution.
as §4, §5, §6
10^5 -10^9 CFU/ml for agar dilution.
as §7

Cryptococcus neoformans [5] = test: Antifungal MIC, serial agar dilution (Sabouraud dextrose agar), Cryptococcus neoformans; type: cell-based
Candida albicans [6] = test: Antifungal MIC, broth dilution (Sabouraud dextrose broth), Candida albicans
Method: as §1, §2, §3
-10^5 CFU/ml for broth dilution.
as §4, §5, §6
10^5 -10^9 CFU/ml for agar dilution.
as §7

[7] = system: Trichophyton mentagrophytes; test: Antifungal MIC, serial agar dilution (Sabouraud dextrose agar), Trichophyton mentagrophytes; type: cell-based
[8] = system: Cryptococcus neoformans IAM 4514; test: In vivo antifungal activity, Cryptococcus neoformans intravenous infection in mice; conditions: IAM4514, in Mus musculus, im, 480 h, read-out: PD50
Method: In vivo activities of BU-3608, BU-3608 B, and BU-3608 C were tested against Candida albicans, Aspergillus fumigatus, and Cryptococcus neoformans infections in mice. Test organisms were cultured for 18 hours at 28° C. in YGP medium (yeast extract, glucose, peptone, K2 HPO4, MgSO4) and then suspended in saline. Male ICR mice weighing 20 to 24 g were infected intravenously with about 20 times (BU-3608) or 10 times (BU-3608 B and C) the median lethal dose of the test fungi. The antibiotics at various dose levels were administered to groups of 5 mice each either intravenously just after the fungal infection or intramuscularly twice a day on days 0 and 1. The dose that protects 50% of the animals from infection (PD50, mg/kg) was calculated from survival rates recorded on the 20th day after the fungal challenge.
**Compounds were administered im b.i.d. on days 0 and 1.

in vitro [9] = conditions: dog, mdck
Cryptococcus neoformans [10] = test: Antifungal MIC, broth dilution (Sabouraud dextrose broth), Cryptococcus neoformans
Method: as §1, §2, §3
-10^5 CFU/ml for broth dilution.
as §4, §5, §6
10^5 -10^9 CFU/ml for agar dilution.
as §7

influenza virus A = test: Cytopathic effect (CPE) reduction assay, influenza virus A in MDCK cells; type: cell-based; conditions: unidentified influenza virus, 72 h, read-out: ID50 (CPE reduction)
Candida albicans A9540 = test: In vivo antifungal activity, Candida albicans intravenous infection in mice; parameters: species or system mice (male ICR); conditions: for ED50: Candida albicans, read-out: PD50; for Number of survivors/tested: iv just after challenge
Method: The methyl and ethyl esters of BU-3608 were also evaluated against C. albicans A9540 infections in mice using the protocol described above. […] It is postulated that these esters are hydrolyzed in vivo to provide the active parent compound.

Blastomyces dermatitidis = test: Antifungal MIC, serial agar dilution (Sabouraud dextrose agar), Blastomyces dermatitidis; conditions: 72 h
Method: as §1, §2

Mucor spinosus = test: Antifungal MIC, serial agar dilution (Sabouraud dextrose agar), Mucor spinosus; conditions: IFO5317, 72 h
Method: as §1, §2

Petriellidium boydii = test: Antifungal MIC, serial agar dilution (Sabouraud dextrose agar), Petriellidium boydii; conditions: Scedosporium boydii, IFO8073, 72 h
Method: as §1, §2

Aspergillus flavus = test: Antifungal MIC, serial agar dilution (Sabouraud dextrose agar), Aspergillus flavus; conditions: 72 h
Method: as §1, §2

Solubility = type: physicochemical; conditions: free form
in vitro [11] = conditions: monkey, vero cells
Acute toxicity in mice = type: in vivo
Method: The acute toxicity of BU-3608 was determined in mice after single intravenous and intramuscular administrations.

[12] = Sporothrix schenckii IFO8158, 48-72 h at 28° C., 10^5-10^9 CFU/ml
[13] = read-out: MIC, partial inhibition (value in parenthesis)
[14] = Fusarium moniliforme A2284, 48-72 h at 28° C., 10^5-10^9 CFU/ml
[15] = Candida albicans A9540, 48-72 h at 28° C., 10^5-10^9 CFU/ml
[16] = Candida albicans IAM4888, 48-72 h at 28° C., 10^5-10^9 CFU/ml
[17] = Aspergillus fumigatus IAM2034, 48-72 h at 28° C., 10^5-10^9 CFU/ml
[18] = Aspergillus fumigatus IAM2530, 48-72 h at 28° C., 10^5-10^9 CFU/ml
[19] = IAM2034, read-out: MIC, partial inhibition (value in parenthesis)
[20] = Cryptococcus neoformans D49, 48-72 h at 28° C., 10^5-10^9 CFU/ml
[21] = Cryptococcus neoformans IAM4514, 48-72 h at 28° C., 10^5-10^9 CFU/ml
[22] = Trichophyton mentagrophytes #4329, 48-72 h at 28° C., 10^5-10^9 CFU/ml
[23] = Trichophyton mentagrophytes D155, 48-72 h at 28° C., 10^5-10^9 CFU/ml
[24] = dose 3.1 mg/kg/inj., day 20, challenge 20x (BU-3608) or 10x (B, C) median lethal dose
[25] = dose 6.3 mg/kg/inj., day 20, challenge 20x (BU-3608) or 10x (B, C) median lethal dose
[26] = dose 12.5 mg/kg/inj., day 20, challenge 20x (BU-3608) or 10x (B, C) median lethal dose
[27] = dose 25 mg/kg/inj., day 20, challenge 20x (BU-3608) or 10x (B, C) median lethal dose
[28] = dose 50 mg/kg/inj., day 20, challenge 20x (BU-3608) or 10x (B, C) median lethal dose

Compound `COc1cc(O)c2c(c1)C(=O)c1c(cc3c(c1O)-c1c(cc(C)c(C(=O)N[C@H](C)C(=O)O)c1O)C(O[C@@H]1O[C@H](C)[C@H](N)[C@H](O[C@@H]4OC[C@@H](O)[C@H](O)[C@H]4O)[C@H]1O)C3O)C2=O` (stereo partly shown) has an MIC (Sporothrix schenckii; [12]) of 1.6 µg/mL (≈ 1.94 µM), an MIC [1] of 6.3 µg/mL (≈ 7.62 µM) and an MIC [1, 13] of 1.3 µg/mL (≈ 1.57 µM). For the same compound, the MIC (Piricularia oryzae) was 3.1 µg/mL (≈ 3.75 µM), the MIC (Fusarium moniliforme; [14]) was 6.3 µg/mL (≈ 7.62 µM) and the MIC (Candida albicans [2]; [15]) was 6.3 µg/mL (≈ 7.62 µM). For the same compound, the MIC (Candida albicans [2]; [16]) was 6.3 µg/mL (≈ 7.62 µM), the MIC (Aspergillus fumigatus [3]; [17]) was 6.3 µg/mL (≈ 7.62 µM) and the MIC (Aspergillus fumigatus [3]; [18]) was 3.1 µg/mL (≈ 3.75 µM). The MIC (Aspergillus fumigatus [4]; IAM2034) was 6.3 µg/mL (≈ 7.62 µM), the MIC (Aspergillus fumigatus [4]; [19]) was 3.1 µg/mL (≈ 3.75 µM) and the MIC (Cryptococcus neoformans [5]; [20]) was 0.8 µg/mL (≈ 0.968 µM). For the same compound, the MIC (Cryptococcus neoformans [5]; [21]) was 0.8 µg/mL (≈ 0.968 µM), the MIC (Candida albicans [6]) was 6.3 µg/mL (≈ 7.62 µM) and the MIC (Candida albicans [6]; [13]) was 3.1 µg/mL (≈ 3.75 µM). For the same compound, the MIC [7, 22] was 6.3 µg/mL (≈ 7.62 µM) and the MIC [7, 23] was 3.1 µg/mL (≈ 3.75 µM).
For `CN[C@@H]1[C@H](O)[C@@H](O)[C@H](OC2c3cc(C)c(C(=O)N[C@H](C)C(=O)O)c(O)c3-c3c(cc4c(c3O)C(=O)c3cc(OC)cc(O)c3C4=O)C2O)O[C@@H]1C` (stereo partly shown) [BU-3608 B], the MIC (Sporothrix schenckii; [12]) was 3.1 µg/mL (≈ 4.37 µM), the MIC [1] was 6.3 µg/mL (≈ 8.89 µM) and the MIC [1, 13] was 3.1 µg/mL (≈ 4.37 µM). The MIC (Piricularia oryzae; 48-72 h at 28° C., read-out: MIC) was 6.3 µg/mL (≈ 8.89 µM), the MIC (Fusarium moniliforme; [14]) was > 100 µg/mL and the MIC (Candida albicans [2]; [15]) was 3.1 µg/mL (≈ 4.37 µM). It also gave an MIC (Candida albicans [2]; [16]) of 1.6 µg/mL (≈ 2.26 µM), an MIC (Aspergillus fumigatus [3]; [17]) of 6.3 µg/mL (≈ 8.89 µM) and an MIC (Aspergillus fumigatus [3]; [18]) of 6.3 µg/mL (≈ 8.89 µM). It also gave an ED50 [8] of 11 mg/kg, an MIC (Aspergillus fumigatus [4]; IAM2034) of 50 µg/mL (≈ 70.6 µM) and an MIC (Aspergillus fumigatus [4]; [19]) of 12.5 µg/mL (≈ 17.6 µM). The CC50 at 72 h (in vitro [9]) was > 100 µg/mL, the MIC (Cryptococcus neoformans [10]; IAM4514) was 1.6 µg/mL (≈ 2.26 µM) and the IC50 (influenza virus A) was 8.4 µg/mL (≈ 11.9 µM). For the same compound, the MIC (Cryptococcus neoformans [5]; [20]) was 0.8 µg/mL (≈ 1.13 µM), the MIC (Cryptococcus neoformans [5]; [21]) was 0.8 µg/mL (≈ 1.13 µM) and the MIC (Candida albicans [6]) was 3.1 µg/mL (≈ 4.37 µM). For the same compound, the MIC (Candida albicans [6]; [13]) was 3.1 µg/mL (≈ 4.37 µM), the ED50 (Candida albicans A9540; A9540, im, 480 h) was 22 mg/kg and the ED50 (Candida albicans A9540; A9540, iv, 480 h) was 11 mg/kg. The Number of survivors/tested (Candida albicans A9540; [24]) was 0/5, the Number of survivors/tested (Candida albicans A9540; [25]) was 0/5 and the Number of survivors/tested (Candida albicans A9540; [26]) was 3/5. The Number of survivors/tested (Candida albicans A9540; [27]) was 3/5, the Number of survivors/tested (Candida albicans A9540; [28]) was 4/5 and the MIC [7, 22] was 6.3 µg/mL (≈ 8.89 µM). For the same compound, the MIC [7, 23] was 6.3 µg/mL (≈ 8.89 µM).
With `CN[C@@H]1[C@H](O[C@@H]2OC[C@@H](O)[C@H](O)[C@H]2O)[C@@H](O)[C@H](OC2c3cc(C)c(C(=O)N[C@H](C)C(=O)O)c(O)c3-c3c(cc4c(c3O)C(=O)c3cc(OC)cc(O)c3C4=O)C2O)O[C@@H]1C` (stereo partly shown) [BU-3608] the MIC (Blastomyces dermatitidis) was 6.3 µg/mL (≈ 7.49 µM), the MIC (Mucor spinosus) was 50 µg/mL (≈ 59.5 µM) and the MIC (Petriellidium boydii) was 100 µg/mL (≈ 119 µM). The MIC (Sporothrix schenckii; Sporothrix schenckii IFO8158, 72 h at 28° C., 10^5 CFU/ml) was 0.8 µg/mL (≈ 0.951 µM), the MIC (Aspergillus flavus) was 1.6 µg/mL (≈ 1.9 µM) and the MIC ([1]; 72 h) was 25 µg/mL (≈ 29.7 µM). For the same compound, the MIC ([1]; 72 h, read-out: MIC, partial inhibition (value in parenthesis)) was 6.3 µg/mL (≈ 7.49 µM), the MIC (Piricularia oryzae; 72 h) was 3.1 µg/mL (≈ 3.69 µM) and the MIC (Fusarium moniliforme; Fusarium moniliforme A2284, 72 h at 28° C., 10^5 CFU/ml) was 3.1 µg/mL (≈ 3.69 µM). The MIC (Candida albicans [2]; Candida albicans A9540, 72 h at 28° C., 10^5 CFU/ml) was 25 µg/mL (≈ 29.7 µM), the MIC (Candida albicans [2]; Candida albicans IAM4888, 72 h at 28° C., 10^5 CFU/ml) was 25 µg/mL (≈ 29.7 µM) and the MIC (Aspergillus fumigatus [3]; Aspergillus fumigatus IAM2034, 72 h at 28° C., 10^5 CFU/ml) was 3.1 µg/mL (≈ 3.69 µM). The MIC (Aspergillus fumigatus [3]; Aspergillus fumigatus IAM2530, 72 h at 28° C., 10^5 CFU/ml) was 3.1 µg/mL (≈ 3.69 µM), the ED50 [8] was 3.5 mg/kg and the MIC (Aspergillus fumigatus [4]; IAM2034, 72 h) was 12.5 µg/mL (≈ 14.9 µM). The CC50 at 72 h (in vitro [9]) was > 100 µg/mL, the MIC (Cryptococcus neoformans [10]; IAM4514, 72 h) was 0.4 µg/mL (≈ 0.476 µM) and the Solubility (Solubility) was “Soluble in dimethyl sulfoxide, dimethyl formamide, acidic and alkaline water; also recorded: Slightly soluble in water, methanol, and ethanol; also recorded: Insoluble in ethyl acetate, chloroform, benzene, n-hexane, and petroleum ether”. For the same compound, the IC50 (influenza virus A) was 4.4 µg/mL (≈ 5.23 µM), the MIC (Cryptococcus neoformans [5]; Cryptococcus neoformans D49, 72 h at 28° C., 10^5 CFU/ml) was 0.8 µg/mL (≈ 0.951 µM) and the MIC (Cryptococcus neoformans [5]; Cryptococcus neoformans IAM4514, 72 h at 28° C., 10^5 CFU/ml) was 0.8 µg/mL (≈ 0.951 µM). For the same compound, the MIC (Candida albicans [6]; 72 h) was 6.3 µg/mL (≈ 7.49 µM), the ED50 (Candida albicans A9540; A9540, 480 h, iv just after fungal challenge, day 20, challenge 20x (BU-3608) or 10x (B, C) median lethal dose) was 7.2 mg/kg and the Number of survivors/tested (Candida albicans A9540; dose 1.6 mg/kg/inj., day 20, challenge 20x median lethal dose) was 1/5. The Number of survivors/tested (Candida albicans A9540; [24]) was 2/5, the Number of survivors/tested (Candida albicans A9540; [25]) was 2/5 and the Number of survivors/tested (Candida albicans A9540; [26]) was 5/5. For the same compound, the Number of survivors/tested (Candida albicans A9540; [27]) was 5/5, the Number of survivors/tested (Candida albicans A9540; [28]) was 5/5 and the CC50 at 72 h (in vitro [11]) was > 100 µg/mL. The MIC ([7]; 72 h, Trichophyton mentagrophytes #4329, 72 h at 28° C., 10^5 CFU/ml) was 25 µg/mL (≈ 29.7 µM), the MIC ([7]; 72 h, Trichophyton mentagrophytes D155, 72 h at 28° C., 10^5 CFU/ml) was > 100 µg/mL and the sign of toxicity (Acute toxicity in mice; mice, single im dose of 400 mg/kg) was “no sign of toxicity”. It also gave an LD50 (Acute toxicity in mice; mouse, in vivo, iv) of 140 mg/kg.
